Where a name gives a salt, the structure may show the parent alone.
Target: ATR kinase (Homo sapiens (Human), UniProt Q13535)
Test: ATR enzyme activity inhibition assay (HTRF)
Type: biochemical
Settings: p53 substrate, full-length ATR enzyme
Protocol: The inhibitory ability to ATR kinase for selected compounds was tested by the HTRF (Homogeneous Time-Resolved Fluorescence). In the reaction system, After the substrate p53 is phosphorylated by ATR, the anti-phospho-p53-Eu that serves as an energy donor and specifically binds to the phosphorylation site on p53 is added. Then, the anti-GST-d2 as an energy acceptor that specifically binds to the GST tag carried on p53 is added. […] The IC50 of the sample to be tested can be obtained through graphing and calculation.
Prepare various buffer systems required for the experiment: • 1. […] Prepare detection buffer: Dilute each of the anti-phospho-p53-Eu cryptate (Cisbio, Cat #61P08KA) and anti-GST-d2 (Cisbio, Cat #61GSTDLB) to 1 unit using HTRF detection buffer (Cisbio, Cat #62SDBRDF).
Powdered compounds were dissolved in DMSO to from a stock solution at a concentration of 10 mM. The solution of compounds to be tested at a concentration of […] was performed a 3-fold dilution for 10 concentrations with DMSO. […] 5 μL of ATR was added to each well accordingly. Each well is incubated at 25° C. for 10 min, added with 5 μL of reaction substrate, incubated at 25° C. for 90 min and added with 10 μL of detection solution. […] The inhibition curves of the compounds were made by the four-parameter […] regression equation of XLfit software, and the inhibition rates of the compounds were calculated.

ATR kinase, sequence (Q13535 whole entry): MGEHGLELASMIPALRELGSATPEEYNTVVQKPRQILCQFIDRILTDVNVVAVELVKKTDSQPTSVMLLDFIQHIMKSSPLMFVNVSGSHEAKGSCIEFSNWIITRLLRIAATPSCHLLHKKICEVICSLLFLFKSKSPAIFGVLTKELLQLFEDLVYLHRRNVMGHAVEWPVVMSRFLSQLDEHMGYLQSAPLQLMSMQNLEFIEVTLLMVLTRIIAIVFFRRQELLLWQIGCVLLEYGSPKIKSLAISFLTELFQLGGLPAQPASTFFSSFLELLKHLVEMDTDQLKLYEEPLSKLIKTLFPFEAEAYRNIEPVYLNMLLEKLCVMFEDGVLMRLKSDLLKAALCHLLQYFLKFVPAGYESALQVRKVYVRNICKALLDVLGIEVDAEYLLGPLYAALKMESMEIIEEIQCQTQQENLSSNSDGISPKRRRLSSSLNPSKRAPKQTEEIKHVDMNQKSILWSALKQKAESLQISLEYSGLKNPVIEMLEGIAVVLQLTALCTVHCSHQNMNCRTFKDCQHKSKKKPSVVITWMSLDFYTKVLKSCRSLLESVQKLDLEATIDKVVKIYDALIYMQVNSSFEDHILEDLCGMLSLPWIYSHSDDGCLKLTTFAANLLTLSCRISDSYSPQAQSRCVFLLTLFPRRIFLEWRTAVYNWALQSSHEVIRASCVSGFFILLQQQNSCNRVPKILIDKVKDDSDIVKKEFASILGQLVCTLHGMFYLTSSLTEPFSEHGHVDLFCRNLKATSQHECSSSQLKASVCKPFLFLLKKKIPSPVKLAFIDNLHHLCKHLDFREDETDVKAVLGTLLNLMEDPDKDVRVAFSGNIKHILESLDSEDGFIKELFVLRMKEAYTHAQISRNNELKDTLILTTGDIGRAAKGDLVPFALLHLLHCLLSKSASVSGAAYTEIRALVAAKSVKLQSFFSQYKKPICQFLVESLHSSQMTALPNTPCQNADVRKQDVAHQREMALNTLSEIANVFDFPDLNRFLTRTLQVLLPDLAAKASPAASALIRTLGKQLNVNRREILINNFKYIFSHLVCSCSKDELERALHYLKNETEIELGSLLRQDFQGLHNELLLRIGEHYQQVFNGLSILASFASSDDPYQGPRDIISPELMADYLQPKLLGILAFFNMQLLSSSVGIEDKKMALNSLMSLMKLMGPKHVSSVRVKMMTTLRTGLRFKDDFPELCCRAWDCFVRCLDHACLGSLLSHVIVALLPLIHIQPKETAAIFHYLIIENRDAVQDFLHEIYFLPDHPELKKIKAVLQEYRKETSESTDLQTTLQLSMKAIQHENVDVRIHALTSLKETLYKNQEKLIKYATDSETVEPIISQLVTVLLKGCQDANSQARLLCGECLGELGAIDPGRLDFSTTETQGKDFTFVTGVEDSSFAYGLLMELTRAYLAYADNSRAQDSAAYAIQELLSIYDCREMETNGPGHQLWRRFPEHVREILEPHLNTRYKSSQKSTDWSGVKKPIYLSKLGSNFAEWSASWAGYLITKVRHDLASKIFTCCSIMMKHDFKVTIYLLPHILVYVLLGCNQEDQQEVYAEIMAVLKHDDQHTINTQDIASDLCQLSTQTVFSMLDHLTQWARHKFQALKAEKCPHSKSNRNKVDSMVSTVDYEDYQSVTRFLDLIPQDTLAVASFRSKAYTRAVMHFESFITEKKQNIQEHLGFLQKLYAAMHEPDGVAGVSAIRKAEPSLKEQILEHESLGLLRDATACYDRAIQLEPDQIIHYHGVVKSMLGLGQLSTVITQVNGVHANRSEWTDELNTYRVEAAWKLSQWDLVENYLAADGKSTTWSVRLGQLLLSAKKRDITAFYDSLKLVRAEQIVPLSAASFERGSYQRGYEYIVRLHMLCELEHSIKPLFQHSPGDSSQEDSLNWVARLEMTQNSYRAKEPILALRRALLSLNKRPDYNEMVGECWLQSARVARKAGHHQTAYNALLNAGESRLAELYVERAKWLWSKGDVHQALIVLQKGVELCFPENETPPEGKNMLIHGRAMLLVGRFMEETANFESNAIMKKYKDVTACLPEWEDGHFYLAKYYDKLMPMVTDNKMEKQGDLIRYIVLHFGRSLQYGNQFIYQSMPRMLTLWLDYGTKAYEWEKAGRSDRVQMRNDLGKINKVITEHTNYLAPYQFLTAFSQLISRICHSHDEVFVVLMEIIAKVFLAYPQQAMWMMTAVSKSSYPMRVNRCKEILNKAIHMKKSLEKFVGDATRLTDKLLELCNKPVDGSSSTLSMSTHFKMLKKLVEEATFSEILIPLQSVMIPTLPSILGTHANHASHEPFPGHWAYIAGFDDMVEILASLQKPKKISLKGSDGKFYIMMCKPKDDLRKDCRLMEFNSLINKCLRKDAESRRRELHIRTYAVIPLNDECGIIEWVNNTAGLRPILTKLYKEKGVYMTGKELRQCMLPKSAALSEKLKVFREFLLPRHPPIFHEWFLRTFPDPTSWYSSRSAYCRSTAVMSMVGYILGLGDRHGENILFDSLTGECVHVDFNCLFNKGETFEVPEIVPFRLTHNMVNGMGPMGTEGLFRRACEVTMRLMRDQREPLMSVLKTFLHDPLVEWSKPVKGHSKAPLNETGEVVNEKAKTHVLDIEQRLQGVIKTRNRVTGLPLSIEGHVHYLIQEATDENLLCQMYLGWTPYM
ATR kinase, sequence (Q8WXE1 whole entry partner): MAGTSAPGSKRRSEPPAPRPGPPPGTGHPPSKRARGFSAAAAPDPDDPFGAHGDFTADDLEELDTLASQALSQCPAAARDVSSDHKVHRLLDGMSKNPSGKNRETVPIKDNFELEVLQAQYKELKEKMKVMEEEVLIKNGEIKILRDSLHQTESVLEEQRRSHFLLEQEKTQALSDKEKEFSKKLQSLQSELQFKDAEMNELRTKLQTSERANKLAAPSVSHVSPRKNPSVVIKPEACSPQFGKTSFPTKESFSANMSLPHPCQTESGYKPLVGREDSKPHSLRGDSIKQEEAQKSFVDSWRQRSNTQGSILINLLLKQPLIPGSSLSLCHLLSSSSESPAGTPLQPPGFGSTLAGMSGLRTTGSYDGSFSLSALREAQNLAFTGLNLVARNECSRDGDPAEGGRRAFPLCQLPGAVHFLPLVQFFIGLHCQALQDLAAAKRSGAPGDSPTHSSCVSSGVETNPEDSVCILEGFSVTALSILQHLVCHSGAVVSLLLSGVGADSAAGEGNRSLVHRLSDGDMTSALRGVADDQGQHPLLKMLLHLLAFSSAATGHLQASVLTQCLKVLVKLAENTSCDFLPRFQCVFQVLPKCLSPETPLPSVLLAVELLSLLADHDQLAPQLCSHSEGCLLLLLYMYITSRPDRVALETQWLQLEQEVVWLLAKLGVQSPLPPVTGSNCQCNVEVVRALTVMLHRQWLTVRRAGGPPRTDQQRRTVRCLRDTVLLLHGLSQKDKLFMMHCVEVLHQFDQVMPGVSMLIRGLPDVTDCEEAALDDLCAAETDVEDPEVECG

SMILES	IC50 [nM]
CC(C)S(=O)(=O)c1ccc(-c2cnc(N)c(-c3cc(-c4ccc(CNC(=N)N)cc4)no3)n2)cc1 [Example 1, 1-(4-(5-(3-amino-6-(4-(isopropylsulfonyl)phenyl)pyrazin-2-yl)isoxazol-3-yl)benzyl)guanidine dihydrochloride]	0.97
CNCc1ccc(-c2cc(-c3nc(-c4ccc(S(=N)(=O)C(C)C)cc4)cnc3N)on2)cc1 (stereo not drawn) [Example 2, (4-(5-amino-6-(3-(4-((methylamino)methyl)phenyl)isoxazol-5-yl)pyrazin-2-yl)phenyl)(imino)(isopropyl)-λ^6-sulfoxide]	2.79
CC(C)S(=O)(=O)c1ccc(-c2cnc(N)c(-c3cc(-c4ccc5[nH]nnc5c4)no3)n2)cc1 [Example 3, 3-(3-(1H-benzo[d][1,2,3]triazol-5-yl)isoxazol-5-yl)-5-(4-(isopropylsulfonyl)phenyl)pyrazin-2-amine]	1.6
CC(C)S(=O)(=O)c1ccc(-c2cnc(N)c(-c3cc(-c4ccc(CNC(=N)N)cc4F)no3)n2)cc1 [Example 4, 1-(4-(5-(3-amino-6-(4-isopropylsulfonyl)phenyl)pyrazin-2-yl)isoxazol-3-yl)-3-fluorobenzyl)guanidine dihydrochloride]	0.83
CC(C)S(=O)(=O)c1ccc(-c2cnc(N)c(-c3cc(-c4ccc(CNC(=O)NC5CC5)cc4)no3)n2)cc1 [Example 5, 1-(4-(5-(3-amino-6-(4-(isopropylsulfonyl)phenyl)pyrazin-2-yl)isoxazol-3-yl)benzyl)-3-cyclopropylurea]	2.32
CCNC(=O)NCc1ccc(-c2cc(-c3nc(-c4ccc(S(=O)(=O)C(C)C)cc4)cnc3N)on2)cc1 [Example 6, 1-(4-(5-(3-amino-6-(4-(isopropylsulfonyl)phenyl)pyrazin-2-yl)isoxazol-3-yl)benzyl)-3-ethylurea]	2.9
CNC(=O)NCc1ccc(-c2cc(-c3nc(-c4ccc(S(=O)(=O)C(C)C)cc4)cnc3N)on2)cc1 [Example 7, 1-(4-(5-(3-amino-6-(4-(isopropylsulfonyl)phenyl)pyrazin-2-yl)isoxazol-3-yl)benzyl)-3-methylurea]	1.04
CC(C)S(=O)(=O)c1ccc(-c2cnc(N)c(-c3cc(-c4ccc(CNS(N)(=O)=O)cc4)no3)n2)cc1 [Example 8, 3-(3-(4-((aminosulfonyl)aminomethylene)phenyl)isoxazol-5-yl)-5-(4-(isopropylsulfonyl)phenyl)pyrazin-2-amine]	3.64
CN(C)S(=O)(=O)c1ccc(-c2cnc(N)c(-c3cc(-c4ccc(CNC(=N)N)cc4)no3)n2)cc1 [Example 10, 4-(5-amino-6-(3-(4-(guanidinomethyl)phenyl)isoxazol-5-yl)pyrazin-2-yl)-N,N-dimethylbenzenesulfonamide dihydrochloride]	1.75
CC(C)S(=O)(=O)c1ccc(-c2cnc(N)c(-c3cc(-c4c(F)cc(CNC(=N)N)cc4F)no3)n2)cc1 [Example 11, 1-(4-(5-(3-amino-6-(4-(isopropylsulfonyl)phenyl)pyrazin-2-yl)isoxazol-3-yl)-3,5-difluorobenzyl)guanidine dihydrochloride]	0.82
CN=S(=O)(c1ccc(-c2cnc(N)c(-c3cc(-c4ccc(CNC(=N)N)cc4)no3)n2)cc1)C(C)C (stereo not drawn) [Example 13, 1-(4-(5-(3-amino-6-(4-(N-methylpropan-2-yl-sulfonimido)phenyl)pyrazin-2-yl)isoxazol-3-yl)benzyl)guanidine dihydrochloride]	1.68
CNC(=O)Nc1ccc(-c2cc(-c3nc(-c4ccc(S(=O)(=O)C(C)C)cc4)cnc3N)on2)cc1 [Example 14, 1-(4-(5-(3-amino-6-(4-(isopropylsulfonyl)phenyl)pyrazin-2-yl)isoxazol-3-yl)phenyl)-3-methylurea]	1.42
CC(C)S(=O)(=O)c1ccc(-c2cnc(N)c(-c3cc(-c4ccc(NC(N)=O)cc4)no3)n2)cc1 [Example 15, 1-(4-(5-(3-amino-6-(4-(isopropylsulfonyl)phenyl)pyrazin-2-yl)isoxazol-3-yl)phenyl)urea]	2
CC(C)S(=O)(=O)c1ccc(-c2cnc(N)c(-c3cc(-c4ccc(NC(=N)N)cc4)no3)n2)cc1 [Example 16, 1-(4-(5-(3-amino-6-(4-(isopropylsulfonyl)phenyl)pyrazin-2-yl)isoxazol-3-yl)phenyl)guanidine]	9.74
CNC(=N)Nc1ccc(-c2cc(-c3nc(-c4ccc(S(=O)(=O)C(C)C)cc4)cnc3N)on2)cc1 [Example 17, 1-(4-(5-(3-amino-6-(4-(isopropylsulfonyl)phenyl)pyrazin-2-yl)isoxazol-3-yl)phenyl)-3-methylguanidine dihydrochloride]	0.93
CCNC(=N)Nc1ccc(-c2cc(-c3nc(-c4ccc(S(=O)(=O)C(C)C)cc4)cnc3N)on2)cc1 [Example 18, 1-(4-(5-(3-amino-6-(4-(isopropylsulfonyl)phenyl)pyrazin-2-yl)isoxazol-3-yl)phenyl)-3-ethylguanidine dihydrochloride]	1.16
CNC(=N)Nc1ccc(-c2cc(-c3nc(-c4ccc(S(=O)(=O)C(C)C)cc4)cnc3N)on2)nc1 [Example 19, 1-(6-(5-(3-amino-6-(4-(isopropylsulfonyl)phenyl)pyrazin-2-yl)isoxazol-3-yl)pyridin-3-yl)-3-methylguanidine dihydrochloride]	1.26
CNC(=N)Nc1ccc(-c2cc(-c3nc(-c4ccc(S(=O)(=O)C(C)C)cc4)cnc3N)on2)c(F)c1 [Example 20, 1-(4-(5-(3-amino-6-(4-(isopropylsulfonyl)phenyl)pyrazin-2-yl)isoxazol-3-yl)-3-fluorophenyl)-3-methylguanidine dihydrochloride]	1.81
CC(C)S(=O)(=O)c1ccc(-c2cnc(N)c(-c3cc(-c4ccc5[nH]c(=O)[nH]c5c4)no3)n2)cc1 [Example 21, 5-(5-(3-amino-6-(4-(isopropylsulfonyl)phenyl)pyrazin-2-yl)isoxazol-3-yl)-1,3-dihydro-2H-benzo[d]imidazol-2-one]	1.31
CC(C)S(=N)(=O)c1ccc(-c2cnc(N)c(-c3cc(-c4ccc5[nH]c(=O)[nH]c5c4)no3)n2)cc1 (stereo not drawn) [Example 22, 5-(5-(3-amino-6-(4-(propan-2-ylsulfonimido)phenyl)pyrazin-2-yl)isoxazol-3-yl)-1,3-dihydro-benzimidazol-2-one dihydrochloride]	1.21
N=C(N)NCc1ccc(-c2cc(-c3nc(-c4ccc(S(=O)(=O)C5CC5)cc4)cnc3N)on2)cc1 [Example 23, 1-(4-(5-(3-amino-6-(4-(cyclopropylsulfonyl)phenyl)pyrazin-2-yl)isoxazol-3-yl)benzyl)guanidine dihydrochloride]	0.7
CC(C)S(=O)(=O)c1ccc(-c2cnc(N)c(-c3cc(-c4ccc(CNC(=N)N)c(F)c4)no3)n2)cc1 [Example 24, 1-(4-(5-(3-amino-6-(4-(isopropylsulfonyl)phenyl)pyrazin-2-yl)isoxazol-3-yl)-2-fluorobenzyl)guanidine dihydrochloride]	1.08
CN(C)C(=O)c1ccc(-c2cnc(N)c(-c3cc(-c4ccc(CNC(=N)N)cc4)no3)n2)cc1 [Example 25, 4-(5-amino-6-(3-(4-(guanidinomethyl)phenyl)isoxazol-5-yl)pyrazin-2-yl)-N,N-dimethylbenzamide dihydrochloride]	1.98
CC(C)S(=O)(=O)c1ccc(-c2cnc(N)c(-c3cc(-c4ccc(C(=O)NC(=N)N)cc4)no3)n2)cc1 [Example 26, dihydrochloride]	2.06

Source: patent US20250026742A1 (SUZHOU ARK BIOPHARMACEUTICAL CO., LTD., priority 2021, published 2025)
